Literature values as cited in patent publication US20070042062A1, “Novel anti-diabetic herbal formulation” (COUNCIL OF SCIENTIFIC AND INDUSTRIAL RESEARCH., priority 2004, published 2007).

Columns and labels:
monkey = settings: in vivo
[1] = tested on: patients suffering from chronic antieri or ureitis (CAU); settings: 375 mg three times a day for 12 weeks, oral; curcumin alone
male volunteers = tested on: male volunteers; set-up: dose or concentration left out as unconfirmed; settings: for 4 weeks
[2] = tested on: carrageenin-induced acute oedema; settings: mice

## COc1cc(/C=C/C(=O)CC(=O)/C=C/c2ccc(O)c(OC)c2)ccc1O [Curcumin, curcumin]
monkey
  toxicity on single or repeated oral administration: did not produce any toxicity
[1]
  clinical outcome in CAU patients: all the patients who received curcumin alone improved
Male volunteers
  side effect in phase-I trials: did not produce any side effect
[2]
  oral ED50 against carrageenin-induced acute oedema: 100.2 mg/kg
